Results on 19 compounds are retold here after patent EP4800015A1, “AZABICYCLO DERIVATIVE AND PREPARATION METHOD THEREFOR, AND USE” (Zhejiang Hisun Pharmaceutical Co., Ltd., priority 2023, dated 2025).

For the first assay, the target named is T1, recombinant human WRN (Homo sapiens, UniProt Q14191).
T1 construct: purchased BPS 101264
T1 sequence (Q14191 whole entry): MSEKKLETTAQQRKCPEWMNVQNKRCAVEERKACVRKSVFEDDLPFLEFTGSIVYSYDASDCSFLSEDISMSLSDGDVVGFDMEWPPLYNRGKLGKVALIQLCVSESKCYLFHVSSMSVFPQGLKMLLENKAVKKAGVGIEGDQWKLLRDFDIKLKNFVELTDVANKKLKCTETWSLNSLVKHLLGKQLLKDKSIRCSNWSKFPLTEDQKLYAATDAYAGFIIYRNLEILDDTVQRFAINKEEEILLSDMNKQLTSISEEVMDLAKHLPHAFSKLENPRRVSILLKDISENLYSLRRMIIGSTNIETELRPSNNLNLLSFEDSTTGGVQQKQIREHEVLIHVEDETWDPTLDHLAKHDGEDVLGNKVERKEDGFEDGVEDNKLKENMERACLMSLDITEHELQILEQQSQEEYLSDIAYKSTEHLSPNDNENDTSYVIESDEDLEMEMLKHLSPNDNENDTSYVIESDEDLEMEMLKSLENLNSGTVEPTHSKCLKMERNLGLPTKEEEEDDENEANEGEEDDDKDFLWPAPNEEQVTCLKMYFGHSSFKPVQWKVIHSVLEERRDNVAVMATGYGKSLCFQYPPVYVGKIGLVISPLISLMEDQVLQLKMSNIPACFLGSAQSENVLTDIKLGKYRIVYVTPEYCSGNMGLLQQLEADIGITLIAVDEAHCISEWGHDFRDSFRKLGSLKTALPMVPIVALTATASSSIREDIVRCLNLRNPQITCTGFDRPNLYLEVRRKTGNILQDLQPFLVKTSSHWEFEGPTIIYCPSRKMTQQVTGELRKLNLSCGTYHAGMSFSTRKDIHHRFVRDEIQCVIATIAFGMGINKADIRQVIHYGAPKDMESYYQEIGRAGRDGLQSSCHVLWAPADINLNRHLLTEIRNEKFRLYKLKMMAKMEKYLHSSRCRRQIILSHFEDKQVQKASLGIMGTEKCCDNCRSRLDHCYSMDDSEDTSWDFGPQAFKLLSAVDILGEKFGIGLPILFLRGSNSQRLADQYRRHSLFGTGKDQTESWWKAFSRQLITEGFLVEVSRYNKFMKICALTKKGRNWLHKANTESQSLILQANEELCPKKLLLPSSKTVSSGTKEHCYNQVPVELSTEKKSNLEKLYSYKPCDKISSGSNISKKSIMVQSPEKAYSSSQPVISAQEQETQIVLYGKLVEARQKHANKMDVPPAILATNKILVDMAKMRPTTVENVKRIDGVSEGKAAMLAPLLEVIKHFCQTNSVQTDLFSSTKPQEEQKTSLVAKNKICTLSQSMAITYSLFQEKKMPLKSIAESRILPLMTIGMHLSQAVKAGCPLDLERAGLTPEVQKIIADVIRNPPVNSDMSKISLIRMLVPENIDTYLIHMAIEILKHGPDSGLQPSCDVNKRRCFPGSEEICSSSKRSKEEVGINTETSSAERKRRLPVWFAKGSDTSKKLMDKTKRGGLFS
The assay can be described thus: Inhibition of WRN enzyme activity (ATPase), ADP-Glo Kinase Assay. The settings on record: WRN protein 5 nM, Flap 0.1 nM, ATP 30 µM. The format is biochemical. A digest of the protocol:
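ATPase activity was measured by ADP-Glo luminescence after a 10-min room-temperature reaction with 30 µM ATP and 0.1 nM Flap26 oligonucleotide substrate. The 5 nM WRN had first been exposed to compound (0.004–1000 nM) for 15 min in pH 7.5 Tris buffer with 2 mM MgCl2. IC50 values came from log-concentration regression against the DMSO control.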
A word on the IC50: it is the concentration that inhibits the measured activity by half. In the case of `C=C(c1ccc(OC)cc1)c1nc2n(CC(=O)Nc3ccc(C(F)(F)F)cc3Cl)c(CC)c(N3CCN(C(=O)c4ncnc(C)c4O)CC3)c(=O)n2n1` [Example 83, N-(2-chloro-4-(trifluoromethyl)phenyl)-2-(5-ethyl-6-(4-(5-hydroxy-6-methylpyrimidine-4-carbonyl)piperazin-1-yl)-2-(1-(4-methoxyphenyl)vinyl)-7-oxo-[1,2,4]triazolo[1,5-a]pyrimidin-4(7H)-yl) acetamide], the IC50 lay within 1 to 100 nM.

Staying with this assay, now noted: WRN protein 5 nM, Flap 0.1 nM, ATP 30 µM; read-out: IC50.
Consider `CCc1c(N2CCN(C(=O)c3ncnc(C)c3O)CC2)c(=O)n2nc(-c3ccc4ccoc4c3)nc2n1CC(=O)Nc1ccc(SC(F)(F)F)cc1` [Example 90, 2-(2-(benzofuran-6-yl)-5-ethyl-6-(4-(5-hydroxy-6-methylpyrimidine-4-carbonyl)piperazin-1-yl)-7-oxo-[1,2,4]triazolo[1,5-a]pyrimidin-4(7H)-yl)-N-(4-((trifluoromethyl)thio)phenyl)acetamide], for which the IC50 was in the range of 1 to 100 nM.

Turning to `CCc1c(C2CCN(C(=O)c3ncnc(C)c3O)CC2)c(=O)n2nc(C3=CCCCCC3)nc2n1CC(=O)Nc1ccc(S(F)(F)(F)(F)F)cc1` [Example 92, 2-(2-(cyclohept-1-en-1-yl)-5-ethyl-6-(1-(5-hydroxy-6-methylpyrimidine-4-carbonyl)piperidin-4-yl)-7-oxo-[1,2,4]triazolo[1,5-a]pyrimidin-4(7H)-yl)-N-(4-(pentafluoro-λ^6-sulfaneyl)phenyl)acetamide], the IC50 was in the range of 1 to 100 nM.

On to `CCc1c(N2CCCN(C(=O)c3ncnc(C)c3O)CC2)c(=O)n2nc(C3=CCCCCC3)nc2n1CC(=O)Nc1ccc(S(F)(F)(F)(F)F)cc1` [Example 94, 2-(2-(cyclohept-1-en-1-yl)-5-ethyl-6-(4-(5-hydroxy-6-methylpyrimidine-4-carbonyl)-1,4-diazepan-1-yl)-7-oxo-[1,2,4]triazolo[1,5-a]pyrimidin-4(7H)-yl)-N-(4-(pentafluoro-λ^6-sulfaneyl)phenyl)a cetamide], for which the IC50 lay within 1 to 100 nM.

`CCc1c(N2CCN(C(=O)c3ncnc(C)c3O)CC2)c(=O)n2nc(C3=CCCCCC3)nc2n1CC(=O)Nc1ccc(OC(F)(F)F)cc1` [Example 95, 2-(2-(cyclohept-1-en-1-yl)-5-ethyl-6-(4-(5-hydroxy-6-methylpyrimidine-4-carbonyl)piperazin-1-yl)-7-oxo-[1,2,4]triazolo[1,5-a]pyrimidin-4(7H)-yl)-N-(4-(trifluoromethoxy)phenyl)acetamide]: the IC50 is < 1 nM.

As to `CCc1c(N2CCN(C(=O)c3ncnc(C)c3O)CC2)c(=O)n2nc(-c3ccc4scnc4c3)nc2n1CC(=O)Nc1ccc(C(F)(F)F)cc1Cl` [Example 100, 2-(2-(benzo[d]thiazol-5-yl)-5-ethyl-6-(4-(5-hydroxy-6-methylpyrimidine-4-carbonyl)piperazin-1-yl)-7-oxo-[1,2,4]triazolo[1,5-a]pyrimidin-4(7H)-yl)-N-(2-chloro-4-(trifluoromethyl)phenyl)acetamide], the IC50 is 1 to 100 nM.

As for `CCc1c(N2CCCN(C(=O)c3ncnc(C)c3O)CC2)c(=O)n2nc(-c3ccc4c(c3)CCO4)nc2n1CC(=O)Nc1ccc(C(F)(F)F)cc1Cl` [Example 107, N-(2-chloro-4-(trifluoromethyl)phenyl)-2-(2-(2,3-dihydrobenzofuran-5-yl)-5-ethyl-6-(4-(5-hydroxy-6-methylpyrimidine-4-carbonyl)-1,4-diazepan-1-yl)-7-oxo-[1,2,4]triazolo[1,5-a]pyrimidin-4(7 H)-yl)acetamide], the IC50 is 1 to 100 nM.

Consider `CCc1c(N2CCC(NC(=O)c3ncnc(C)c3O)CC2)c(=O)n2nc(-c3ccc4c(c3)CCO4)nc2n1CC(=O)Nc1ccc(C(F)(F)F)cc1Cl` [Example 108, N-(1-(4-(2-((2-chloro-4-(trifluoromethyl)phenyl)amino)-2-oxoethyl)-2-(2,3-dihydrobenzofuran-5-yl)-5-ethyl-7-oxo-4,7-dihydro-[1,2,4]triazolo[1,5-a]pyrimidin-6-yl)piperidin-4-yl)-5-hydroxy-6-methylpyrimidine-4-carboxamide], for which the IC50 fell in the range of 1 to 100 nM.

As for `CCc1c(N2CCN(C(=O)c3ncnc(C)c3O)CC2)c(=O)n2nc(-c3ccc4sc(C)nc4c3)nc2n1CC(=O)Nc1ccc(C(F)(F)F)cc1Cl` [Example 110, N-(2-chloro-4-(trifluoromethyl)phenyl)-2-(5-ethyl-6-(4-(5-hydroxy-6-methylpyrimidine-4-carbonyl)piperazin-1-yl)-2-(2-methylbenzo[d]thiazol-5-yl)-7-oxo-[1,2,4]triazolo[1,5-a]pyrimidin-4(7H)-yl)acetamide], the IC50 lay within 1 to 100 nM.

For the compound `CCc1c(N2CCN(C(=O)c3ncnc(C)c3O)CC2)c(=O)n2nc(-c3ccc4c(c3)ncn4C)nc2n1CC(=O)Nc1ccc(C(F)(F)F)cc1Cl` [Example 111, N-(2-chloro-4-(trifluoromethyl)phenyl)-2-(5-ethyl-6-(4-(5-hydroxy-6-methylpyrimidine-4-carbonyl)piperazin-1-yl)-2-(1-methyl-1H-benzo[d]imidazol-5-yl)-7-oxo-[1,2,4]triazolo[1,5-a]pyrimidin-4(7H)-yl)acetamide], the IC50 fell in the range of 1 to 100 nM.

Take `CCc1c(N2CCN(C(=O)c3ncnc(C)c3O)CC2)c(=O)n2nc(-c3cnc4[nH]ncc4c3)nc2n1CC(=O)Nc1ccc(C(F)(F)F)cc1Cl` [Example 114, N-(2-chloro-4-(trifluoromethyl)phenyl)-2-(5-ethyl-6-(4-(5-hydroxy-6-methylpyrimidine-4-carbonyl)piperazin-1-yl)-7-oxo-2-(1H-pyrazolo[3,4-b]pyridin-5-yl)-[1,2,4]triazolo[1,5-a]pyrimidin-4(7 H)-yl)acetamide]: the IC50 lay in the range of 1 to 100 nM.

On to `CCc1c(N2CCN(C(=O)c3ncnc(C)c3O)CC2)c(=O)n2nc(C=C3CC(C(N)=O)C3)nc2n1CC(=O)Nc1ccc(C(F)(F)F)cc1Cl` (stereo not shown) [Example 116, 3-((4-(2-((2-chloro-4-(trifluoromethyl)phenyl)amino)-2-oxoethyl)-5-ethyl-6-(4-(5-hydroxy-6-methylpyrimidine-4-carbonyl)piperazin-1-yl)-7-oxo-4,7-dihydro-[1,2,4]triazolo[1,5-a]pyrimidin-2-yl)methylene)cyclobutane-1-carboxamide], for which the IC50 is 1 to 100 nM.

As for `CCc1c(N2CCN(C(=O)c3ncnc(C)c3O)CC2)c(=O)n2nc(C=C3CCCC3)nc2n1CC(=O)Nc1ccc(C(F)(F)F)cc1Cl` [Example 117, N-(2-chloro-4-(trifluoromethyl)phenyl)-2-(2-(cyclopentylidenemethyl)-5-ethyl-6-(4-(5-hydroxy-6-methylpyrimidine-4-carbonyl)piperazin-1-yl)-7-oxo-[1,2,4]triazolo[1,5-a]pyrimidin-4(7H)-yl)a cetamide], the IC50 fell in the range of 1 to 100 nM.

As to `CCc1c(N2CCN(C(=O)c3ncnc(C)c3O)CC2)c(=O)n2nc(C3=CC4(C3)CC(C(N)=O)C4)nc2n1CC(=O)Nc1ccc(C(F)(F)F)cc1Cl` (stereo not shown) [Example 119, 6-(4-(2-((2-chloro-4-(trifluoromethyl)phenyl)amino)-2-oxoethyl)-5-ethyl-6-(4-(5-hydroxy-6-methylpyrimidine-4-carbonyl)piperazin-1-yl)-7-oxo-4,7-dihydro-[1,2,4]triazolo[1,5-a]pyrimidin-2-yl)spiro[3.3]hept-5-ene-2-carboxamide], the IC50 was in the range of 1 to 100 nM.

With `CCc1c(N2CCN(C(=O)c3ncnc(C)c3O)CC2)c(=O)n2nc(C3=CC4C/C(=N/OC)CC4C3)nc2n1CC(=O)Nc1ccc(C(F)(F)F)cc1Cl` (stereo not shown) [Example 122, (E)-N-(2-chloro-4-(trifluoromethyl)phenyl)-2-(5-ethyl-6-(4-(5-hydroxy-6-methylpyrimidine-4-carbonyl)piperazin-1-yl)-2-(5-(methoxyimino)-1,3a,4,5,6,6a-hexahydropentalen-2-yl)-7-oxo-[1,2,4]triazolo[1,5-a]pyrimidin-4(7H)-yl)acetamide], the IC50 fell in the range of 1 to 100 nM.

Turning to `CCc1c(N2CCN(C(=O)c3ncnc(C)c3O)CC2)c(=O)n2nc(-c3cccc4occc34)nc2n1CC(=O)Nc1ccc(C(F)(F)F)cc1Cl` [Example 124, 2-(2-(benzofuran-4-yl)-5-ethyl-6-(4-(5-hydroxy-6-methylpyrimidine-4-carbonyl)piperazin-1-yl)-7-oxo-[1,2,4]triazolo[1,5-a]pyrimidin-4(7H)-yl)-N-(2-chloro-4-(trifluoromethyl)phenyl)acetamide], the IC50 was 1 to 100 nM.

For the compound `CCc1c(N2CCN(C(=O)c3ncnc(C)c3O)CC2)c(=O)n2nc(-c3ccc4c(c3)C(=O)NC4)nc2n1CC(=O)Nc1ccc(C(F)(F)F)cc1Cl` [Example 127, N-(2-chloro-4-(trifluoromethyl)phenyl)-2-(5-ethyl-6-(4-(5-hydroxy-6-methylpyrimidine-4-carbonyl)piperazin-1-yl)-7-oxo-2-(3-oxoisoindolin-5-yl)-[1,2,4]triazolo[1,5-a]pyrimidin-4(7H)-yl)acetamide], the IC50 lay in the range of 1 to 100 nM.

As to `CCc1c(N2CCN(C(=O)c3ncnc(C)c3O)CC2)c(=O)n2nc(-c3ccc4ccn(C)c4c3)nc2n1CC(=O)Nc1ccc(C(F)(F)F)cc1Cl` [Example 128, N-(2-chloro-4-(trifluoromethyl)phenyl)-2-(5-ethyl-6-(4-(5-hydroxy-6-methylpyrimidine-4-carbonyl)piperazin-1-yl)-2-(1-methyl-1H-indol-6-yl)-7-oxo-[1,2,4]triazolo[1,5-a]pyrimidin-4(7H)-yl)ac etamide], the IC50 lay within 1 to 100 nM.

For the compound `CCc1c(N2CCN(C(=O)c3ncnc(C)c3O)CC2)c(=O)n2nc(-c3cc4cccnc4s3)nc2n1CC(=O)Nc1ccc(C(F)(F)F)cc1Cl` [Example 131, N-(2-chloro-4-(trifluoromethyl)phenyl)-2-(5-ethyl-6-(4-(5-hydroxy-6-methylpyrimidine-4-carbonyl)piperazin-1-yl)-7-oxo-2-(thieno[2,3-b]pyridin-2-yl)-[1,2,4]triazolo[1,5-a]pyrimidin-4(7H)-yl)a cetamide], the IC50 lay within 1 to 100 nM.
